Laboratory results: patent US12077503B2, “Substituted cyclic amides and their use as herbicides” (FMC CORPORATION, priority 2015, dated 2024)

What was measured:
Type in all cases: in vivo
[1] = tested on: velvetleaf (Abutilon theophrasti); experiment: Test G Post-Emergence Protocol; settings: Abutilon theophrasti, post-emergence, 312 h; for pest or weed control at 15.625 g/ha: 15.625 g ai/ha, evaluated after 13 days (100=total damage to plant; 0=no damage to plant), read-out: Velvetleaf damage rating; for pest or weed control at 62.5 g/ha: 62.5 g ai/ha, read-out: Velvetleaf damage rating (100=total damage to plant; 0=no damage to plant); for pest or weed control at 62.5 g/ha / pest or weed control at 250 g/ha: evaluated after 13 days; for pest or weed control at 250 g/ha: 250 g ai/ha, read-out: damage to plant, Velvetleaf (100=total damage to plant; 0=no damage to plant)
Method in brief: (§1)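 Seedlings grown 8 days in soil in a glasshouse (24/16 °C day/night, 14 h light, 65% humidity) were sprayed post-emergence with compound in acetone/water 50:50 plus 0.5% Tween 20 at 15.625, 62.5 or 250 g/ha. Damage was scored after 13 days on a 0–100 scale (100 = total damage).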

[2] = tested on: giant foxtail (Setaria faberi); experiment: Test G Post-Emergence Protocol; settings: Setaria faberi, post-emergence, 312 h; for pest or weed control at 15.625 g/ha: 15.625 g ai/ha, evaluated after 13 days (100=total damage to plant; 0=no damage to plant), read-out: Foxtail, Giant damage rating; for pest or weed control at 62.5 g/ha: 62.5 g ai/ha, read-out: Foxtail, Giant damage rating (100=total damage to plant; 0=no damage to plant); for pest or weed control at 62.5 g/ha / pest or weed control at 250 g/ha: evaluated after 13 days; for pest or weed control at 250 g/ha: 250 g ai/ha, read-out: damage to plant, Foxtail, Giant (100=total damage to plant; 0=no damage to plant)
Method in brief: as §1

[3] = tested on: redroot pigweed (Amaranthus retroflexus); experiment: Test G Post-Emergence Protocol; settings: Amaranthus retroflexus, post-emergence, 312 h; for pest or weed control at 15.625 g/ha: 15.625 g ai/ha, evaluated after 13 days (100=total damage to plant; 0=no damage to plant), read-out: Pigweed, Redroot damage rating; for pest or weed control at 62.5 g/ha: 62.5 g ai/ha, read-out: Pigweed, Redroot damage rating (100=total damage to plant; 0=no damage to plant); for pest or weed control at 62.5 g/ha / pest or weed control at 250 g/ha: evaluated after 13 days; for pest or weed control at 250 g/ha: 250 g ai/ha, read-out: damage to plant, Pigweed, Redroot (100=total damage to plant; 0=no damage to plant)
Method in brief: as §1

[4] = tested on: ivy-leaved morning glory (Ipomoea hederacea); experiment: Test G Post-Emergence Protocol; settings: Ipomoea, post-emergence, 312 h; for pest or weed control at 15.625 g/ha: 15.625 g ai/ha, evaluated after 13 days (100=total damage to plant; 0=no damage to plant), read-out: Morningglory, Ivy-leaved damage rating; for pest or weed control at 62.5 g/ha: 62.5 g ai/ha, read-out: Morningglory, Ivy-leaved damage rating (100=total damage to plant; 0=no damage to plant); for pest or weed control at 62.5 g/ha / pest or weed control at 250 g/ha: evaluated after 13 days; for pest or weed control at 250 g/ha: 250 g ai/ha, read-out: damage to plant, Morningglory, Ivy-leaved (100=total damage to plant; 0=no damage to plant)
Method in brief: as §1

corn (Zea mays) [5] = experiment: Test G Post-Emergence Protocol; settings: Zea mays, post-emergence, 312 h; for plant injury at 15.625 g/ha: 15.625 g ai/ha, evaluated after 13 days (100=total damage to plant; 0=no damage to plant), read-out: Corn damage rating; for plant injury at 62.5 g/ha: 62.5 g ai/ha, read-out: Corn damage rating (100=total damage to plant; 0=no damage to plant); for plant injury at 62.5 g/ha / plant injury at 250 g/ha: evaluated after 13 days; for plant injury at 250 g/ha: 250 g ai/ha, read-out: damage to plant, Corn (100=total damage to plant; 0=no damage to plant)
Method in brief: as §1

[6] = tested on: barnyardgrass (Echinochloa crus-galli); experiment: Test G Post-Emergence Protocol; settings: Echinochloa crus-galli, post-emergence, 312 h; for pest or weed control at 15.625 g/ha: 15.625 g ai/ha, evaluated after 13 days (100=total damage to plant; 0=no damage to plant), read-out: Barnyardgrass damage rating; for pest or weed control at 62.5 g/ha: 62.5 g ai/ha, read-out: Barnyardgrass damage rating (100=total damage to plant; 0=no damage to plant); for pest or weed control at 62.5 g/ha / pest or weed control at 250 g/ha: evaluated after 13 days; for pest or weed control at 250 g/ha: 250 g ai/ha, read-out: damage to plant, Barnyardgrass (100=total damage to plant; 0=no damage to plant)
Method in brief: as §1

[7] = tested on: velvetleaf (Abutilon theophrasti); experiment: Test G Pre-Emergence Protocol; settings: Abutilon theophrasti, pre-emergence, 312 h, evaluated after 13 days; for pest or weed control at 15.625 g/ha: 15.625 g ai/ha; for pest or weed control at 15.625 g/ha / pest or weed control at 250 g/ha: read-out: Velvetleaf damage rating (100=total damage to plant; 0=no damage to plant); for pest or weed control at 62.5 g/ha: 62.5 g ai/ha, 100=total damage to plant, 0=no damage to plant, read-out: plant damage rating, Velvetleaf; for pest or weed control at 250 g/ha: 250 g ai/ha
Method in brief: (§2)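 Herbicidal effect was rated 13 days post-application on a scale where 100 equals total damage. Spraying took place the day after sowing, using 15.625, 62.5 or 250 g/ha of compound in a 50:50 acetone/water solution with 0.5% Tween 20.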

[8] = tested on: giant foxtail (Setaria faberi); experiment: Test G Pre-Emergence Protocol; settings: Setaria faberi, pre-emergence, 312 h, evaluated after 13 days; for pest or weed control at 15.625 g/ha: 15.625 g ai/ha; for pest or weed control at 15.625 g/ha / pest or weed control at 250 g/ha: read-out: Foxtail, Giant damage rating (100=total damage to plant; 0=no damage to plant); for pest or weed control at 62.5 g/ha: 62.5 g ai/ha, 100=total damage to plant, 0=no damage to plant, read-out: plant damage rating, Foxtail, Giant; for pest or weed control at 250 g/ha: 250 g ai/ha
Method in brief: as §2

[9] = tested on: redroot pigweed (Amaranthus retroflexus); experiment: Test G Pre-Emergence Protocol; settings: Amaranthus retroflexus, pre-emergence, 312 h, evaluated after 13 days; for pest or weed control at 15.625 g/ha: 15.625 g ai/ha; for pest or weed control at 15.625 g/ha / pest or weed control at 250 g/ha: read-out: Pigweed, Redroot damage rating (100=total damage to plant; 0=no damage to plant); for pest or weed control at 62.5 g/ha: 62.5 g ai/ha, 100=total damage to plant, 0=no damage to plant, read-out: plant damage rating, Pigweed, Redroot; for pest or weed control at 250 g/ha: 250 g ai/ha
Method in brief: as §2

[10] = tested on: ivy-leaved morning glory (Ipomoea hederacea); experiment: Test G Pre-Emergence Protocol; settings: Ipomoea, pre-emergence, 312 h, evaluated after 13 days; for pest or weed control at 15.625 g/ha: 15.625 g ai/ha, read-out: Morning-glory, Ivy-leaved damage rating (100=total damage to plant; 0=no damage to plant); for pest or weed control at 62.5 g/ha: 62.5 g ai/ha, 100=total damage to plant, 0=no damage to plant, read-out: plant damage rating, Morningglory, Ivy-leaved; for pest or weed control at 250 g/ha: 250 g ai/ha, read-out: Morningglory, Ivy-leaved damage rating (100=total damage to plant; 0=no damage to plant)
Method in brief: as §2

corn (Zea mays) [11] = experiment: Test G Pre-Emergence Protocol; settings: Zea mays, pre-emergence, 312 h, evaluated after 13 days; for plant injury at 15.625 g/ha: 15.625 g ai/ha; for plant injury at 15.625 g/ha / plant injury at 250 g/ha: read-out: Corn damage rating (100=total damage to plant; 0=no damage to plant); for plant injury at 62.5 g/ha: 62.5 g ai/ha, 100=total damage to plant, 0=no damage to plant, read-out: plant damage rating, Corn; for plant injury at 250 g/ha: 250 g ai/ha
Method in brief: as §2

[12] = tested on: barnyardgrass (Echinochloa crus-galli); experiment: Test G Pre-Emergence Protocol; settings: Echinochloa crus-galli, pre-emergence, 312 h, evaluated after 13 days; for pest or weed control at 15.625 g/ha: 15.625 g ai/ha, read-out: Barnyard grass damage rating (100=total damage to plant; 0=no damage to plant); for pest or weed control at 62.5 g/ha: 62.5 g ai/ha, 100=total damage to plant, 0=no damage to plant, read-out: plant damage rating, Barnyardgrass; for pest or weed control at 250 g/ha: 250 g ai/ha, read-out: Barnyardgrass damage rating (100=total damage to plant; 0=no damage to plant)
Method in brief: as §2

Row | SMILES | pest or weed control at 15.625 g/ha [1] [%] | pest or weed control at 62.5 g/ha [1] [%] | pest or weed control at 250 g/ha [1] [%] | pest or weed control at 15.625 g/ha [2] [%] | pest or weed control at 62.5 g/ha [2] [%] | pest or weed control at 250 g/ha [2] [%] | pest or weed control at 15.625 g/ha [3] [%] | pest or weed control at 62.5 g/ha [3] [%] | pest or weed control at 250 g/ha [3] [%] | pest or weed control at 15.625 g/ha [4] [%] | pest or weed control at 62.5 g/ha [4] [%] | pest or weed control at 250 g/ha [4] [%] | plant injury at 15.625 g/ha (corn (Zea mays) [5]) [%] | plant injury at 62.5 g/ha (corn (Zea mays) [5]) [%] | plant injury at 250 g/ha (corn (Zea mays) [5]) [%] | pest or weed control at 15.625 g/ha [6] [%] | pest or weed control at 62.5 g/ha [6] [%] | pest or weed control at 250 g/ha [6] [%] | pest or weed control at 15.625 g/ha [7] [%] | pest or weed control at 62.5 g/ha [7] [%] | also measured
1 | CN1C[C@@H](c2ccc(C(F)(F)F)cc2)[C@H](C(=O)Nc2ccc(F)c(F)c2Cl)C1=O (racemic) [Compound 1627] | 0 | 20 | 40 | 70 | 80 | 80 | 20 | 60 | 70 | 60 | 70 | 70 | 0 | 30 | 70 | 20 | 70 | 80 | 0 | 20 | pest or weed control at 250 g/ha [7]: 20%; pest or weed control at 15.625 g/ha [8]: 70%; pest or weed control at 62.5 g/ha [8]: 80%; pest or weed control at 250 g/ha [8]: 80%; pest or weed control at 15.625 g/ha [9]: 0%; pest or weed control at 62.5 g/ha [9]: 50%; pest or weed control at 250 g/ha [9]: 60%; pest or weed control at 15.625 g/ha [10]: 0%; pest or weed control at 62.5 g/ha [10]: 0%; pest or weed control at 250 g/ha [10]: 10%; plant injury at 15.625 g/ha (corn (Zea mays) [11]): 0%; plant injury at 62.5 g/ha (corn (Zea mays) [11]): 10%; plant injury at 250 g/ha (corn (Zea mays) [11]): 70%; pest or weed control at 15.625 g/ha [12]: 0%; pest or weed control at 62.5 g/ha [12]: 40%; pest or weed control at 250 g/ha [12]: 80%
2 | CN1C[C@H](c2ccc(C(F)(F)F)cc2)[C@@H](C(=O)Nc2nccc(C(F)(F)F)c2F)C1=O (racemic) [Compound 1436] | 0 | 0 | 0 | 0 | 0 | 0 | 0 | 0 | 0 | 0 | 0 | 0 | 0 | 0 | 0 | 0 | 0 | 0 | 0 | 0 | pest or weed control at 250 g/ha [7]: 0%; pest or weed control at 15.625 g/ha [8]: 0%; pest or weed control at 62.5 g/ha [8]: 0%; pest or weed control at 250 g/ha [8]: 0%; pest or weed control at 15.625 g/ha [9]: 0%; pest or weed control at 62.5 g/ha [9]: 0%; pest or weed control at 250 g/ha [9]: 0%; pest or weed control at 15.625 g/ha [10]: 0%; pest or weed control at 62.5 g/ha [10]: 0%; pest or weed control at 250 g/ha [10]: 0%; plant injury at 15.625 g/ha (corn (Zea mays) [11]): 0%; plant injury at 62.5 g/ha (corn (Zea mays) [11]): 0%; plant injury at 250 g/ha (corn (Zea mays) [11]): 0%; pest or weed control at 15.625 g/ha [12]: 0%; pest or weed control at 62.5 g/ha [12]: 0%; pest or weed control at 250 g/ha [12]: 0%
